Source: patent US10857105B2, “Compounds and compositions for intracellular delivery of therapeutic agents” (ModernaTX, Inc., priority 2017, dated 2020)

Assays:
[1] = Particle size and polydispersity index of nanoparticle compositions (Zetasizer Nano ZS); format: physicochemical
In short: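 Size and PDI measured by Zetasizer Nano ZS in 1×PBS (zeta potential in 15 mM PBS). Lipid nanoparticles contained test ionizable lipid:DSPC:cholesterol:PEG-DMG at 50:10:38.5:1.5 mol % with N1-methyl-pseudouridine mRNA encoding luciferase or hEPO.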

[2] = Encapsulation efficiency of RNA in nanoparticle compositions (RIBOGREEN assay); format: physicochemical
In short: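 Lipid nanoparticles (ionisable lipid:DSPC:cholesterol:PEG-DMG 50:10:38.5:1.5 mol %) carrying N1-methylpseudouridine luciferase or hEPO mRNA diluted to about 5 μg/mL in TE, pH 7.5, with or without 2% Triton X-100, 15 min at 37° C. RiboGreen fluorescence (ex ~480, em ~520 nm) blank-subtracted; free RNA = intact/disrupted signal.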

[3] = test system: luciferase (Luc) mRNA; assay: Luciferase expression after intramuscular administration to mice; format: in vivo; conditions: for Total flux 6 hours after intramuscular administration, 0.01 mpk Dose: Luc mRNA; for Total flux 6 hours after intramuscular administration, 0.01 mpk Dose / Novel lipid/MC3 expression ratio, i.m. Luc: intramuscular; for Novel lipid/MC3 expression ratio, i.m. Luc: 6 hr. time point, relative to MC3 formulation
Source text: The numbers 1-7 in this figure correspond to MC3, Compounds 168-170, and 173-175 respectively.
FIGS. 18A and 18B show the results of luciferase expression measured upon intramuscular administration of various nanoparticle compositions to CD-1 mice at 0.01 mpk. FIG. 18A is a bar graph showing total flux at 6 hr after administration. The numbers above each bar indicate the expression ratio relative to MC3. […] Numbers 1-11 in the Figures refer to compositions containing the following: 1: MC3, 2: Compound 143, 3: Compound 49; 4: Compound 113; 5: Compound 61; 6: Compound 72; 7: Compound 75; 8: Compound 71; 9: Compound 128; 10: Compound 156; 11: Compound 157.
The numbers 1-9 in this figure correspond to MC3, and Compounds 178, 181, 182, 218, 198, 200, 233, and 239, respectively.
The total flux (measured by area under the curve, AUC) induced by administration of a formulation including a given lipid relative to that induced by administration of a formulation including MC3 was also measured for several lipids.
Sample formulations including modified luciferase (Luc) mRNA prepared and administered intramuscularly and the resulting expression and immunogenicity were evaluated simultaneously. Formulations including compounds according to Formula (I), (IA), (IB), (II), (IIa), (IIb), (IIc), (IId), (IIe), (IIf), (IIg), or (III) were prepared and administered at dose of and 0.01 mpk.

[4] = test system: modified luciferase; assay: Luciferase expression in liver, lung, spleen and femur 6 hours after intravenous administration to mice; format: in vivo; conditions: 6 hours after intravenous 0.5 mpk, mice
In short: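 Nanoparticle formulations of the modified luciferase were given intravenously to mice (n=3) at 0.5 mpk. Bioluminescence was measured after 6 hours as total light flux. Standard MC3 formulation and PBS run as controls.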

[5] = test system: luciferase (Luc) mRNA; assay: Luciferase expression (whole body bioluminescence) after intravenous administration to mice; format: in vivo; conditions: for Novel lipid/MC3 expression ratio, i.v.: intravenous, luciferase, 6 hr. time point, relative to MC3 formulation
In short: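 Mice (n=6) received lipid nanoparticle formulations carrying luciferase mRNA intravenously at 0.5 mg/kg. Whole-body bioluminescence was measured at 3, 6 and 24 h. Total flux was taken as area under the curve and expressed relative to a standard MC3 formulation.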

[6] = Table 1A, lipid:DSPC:cholesterol:PEG-DMG 50:10:38.5:1.5 mol %
[7] = Table 1B, formulated with hEPO mRNA
[8] = Table 1D, compositions for subcutaneous administration, # formulated with hEPO mRNA
[9] = Table 1E, compositions for subcutaneous administration

| Compound | Size [1, 6] | Size [1, 7] | Size [1, 8] | Size [1, 9] | EE [2, 7] | Total flux 6 hours after intramuscular administration, 0.01 mpk Dose [3] | Total Flux, Liver [4] | Total Flux, Lung [4] | Total Flux, Spleen [4] | AUC ([3]; luciferase, intramuscular administration (Table 3H)) | Novel lipid/MC3 expression ratio, i.v. [5] | Novel lipid/MC3 expression ratio, i.m. Luc ([3]; luciferase) | Size ([1]; Table 1C, compositions for subcutaneous administration) | AUC ([5]; intravenous administration (Table 3D)) | EE [2, 6] |
| --- | --- | --- | --- | --- | --- | --- | --- | --- | --- | --- | --- | --- | --- | --- | --- |
| CCCC/C=C\CCC(CC/C=C\CCCC)OC(=O)CCCCCCCN(CCO)CCCCCCCC(=O)OCCCCCCCCC [Compound 60, (5Z,12Z)-Heptadeca-5,12-dien-9-yl 8-((2-hydroxyethyl)(8-(nonyloxy)-8-oxooctyl)amino)octanoate] | 95.1 nm | 88.9 nm | 87.4 nm | 93.3 nm | 95.20% | 9.48E+07 p/s | 1.54E+09 | 6.25E+06 | 7.12E+06 | – | – | – | – | – | – |
| CCCC/C=C\CCC(CC/C=C\CCCC)OC(=O)CCCCCCCN(CCO)CCCCCC(=O)OCCCCCCCCCCC [Compound 61, (5Z,12Z)-heptadeca-5,12-dien-9-yl 8-((2-hydroxyethyl)(6-oxo-6-(undecyloxy)hexyl)amino)octanoate] | 82.1 nm | – | – | 80.0 nm | – | – | 6.37E+08 | 3.56E+06 | 1.61E+07 | 2.30E+09 p/s*h | – | – | – | – | – |
| CCCCCCCCCOC(=O)CCCCCCCN(CCCCCCCC(=O)OC(CCCCCCCC)CCCCCCCC)CC(O)CO (stereo not drawn) [Compound 69, Heptadecan-9-yl 8-((2,3-dihydroxypropyl)(8-(nonyloxy)-8-oxooctyl)amino)octanoate] | 77.2 nm | – | – | 71.8 nm | – | 8.83E+06 p/s | 2.24E+08 | 7.34E+05 | 2.54E+06 | – | 0.30 | 0.27 | – | – | – |
| CCCCCCCCCOC(=O)CCCCCCCN(CCCCCCCC(=O)OC(CCCCCCCC)CCCCCCCC)CCCNC(=S)N(C)C [Compound 111, Heptadecan-9-yl 8-((3-(3,3-dimethylthioureido)propyl)(8-(nonyloxy)-8-oxooctyl)amino)octanoate] | 116.7 nm | 93.3 nm | 94.5 nm | 88.9 nm | 91.23% | 1.58E+08 p/s | 4.83E+09 | 2.57E+07 | 2.44E+08 | – | – | – | – | – | – |
| CCCCCCCCCOC(=O)CCCCCCCN(CCCCCCCC(=O)OC(CCCCCCCC)CCCCCCCC)CCCn1ccc(=O)[nH]c1=O [Compound 114, Heptadecan-9-yl 8-((3-(2,4-dioxo-3,4-dihydropyrimidin-1(2H)-yl)propyl)(8-(nonyloxy)-8-oxooctyl)amino)octanoate] | 65.1 nm | – | – | – | – | 3.31E+06 p/s | – | – | – | – | – | – | – | – | – |
| CCCCCCCCC(C)OC(=O)CCCCCN(CCO)CCCCCCCC(=O)OC(CCCCCCCC)CCCCCCCC (stereo not drawn) [Compound 122, Heptadecan-9-yl 8-((6-(decan-2-yloxy)-6-oxohexyl)(2-hydroxyethyl)amino)octanoate] | 69.3 nm | 70.2 nm | – | – | 96.27% | 9.19E+07 p/s | 2.63E+09 | 2.77E+07 | 1.56E+07 | – | – | – | 80.2 nm | – | – |
| CCCCCCCCC(CCCCCCCC)OC(=O)CCCCCCCN(CCO)CCCCCC(=O)OC(CCCCCCCC)C1CC1 (stereo not drawn) [Compound 128, Heptadecan-9-yl 8-((6-((1-cyclopropylnonyl)oxy)-6-oxohexyl)(2-hydroxyethyl)amino)octanoate] | 104.1 nm | – | – | 73.9 nm | – | – | 5.98E+09 | 2.16E+07 | 7.09E+07 | – | – | 0.99 | – | – | – |
| CCCCCCCCCOC(=O)CCCCCCCN(CCCCCCCC(=O)OC(CCCCCCCC)CCCCCCCC)C(CO)CO [Compound 156, Heptadecan-9-yl 8-((1,3-dihydroxypropan-2-yl)(8-(nonyloxy)-8-oxooctyl)amino)octanoate] | 68.1 nm | – | – | – | – | – | 6.51E+08 | 1.92E+06 | 1.82E+07 | – | 0.60 | 0.06 | – | 1.170E+011 p/s*h | – |
| CCCCCCCCCOC(=O)CCCCCCCN(CCCCCCCC(=O)OC(CCCCCCCC)CCCCCCCC)CCCNc1c(N(C)C)c(=O)c1=O [Compound 169, Heptadecan-9-yl 8-((3-((2-(dimethylamino)-3,4-dioxocyclobut-1-en-1-yl)amino)propyl)(8-(nonyloxy)-8-oxooctyl)amino)octanoate] | 87.4 nm | – | – | – | – | – | – | – | – | – | 0.11 | 3.3 | – | – | – |
| CCCCCCCCCOC(=O)CCCCCCCN(CCCCCCCC(=O)OC(CCCCCCCC)CCCCCCCC)CCCN/C(=C/[N+](=O)[O-])NC [Compound 170, Heptadecan-9-yl (E)-8-((3-((1-(methylamino)-2-nitrovinyl)amino)propyl)(8-(nonyloxy)-8-oxooctyl)amino)octanoate] | 96.0 nm | – | – | – | – | – | – | – | – | – | 0.02 | 5.3 | – | – | – |
| CCCCCCCCCOC(=O)CCCCCCCN(CCCCCCCC(=O)OC(CCCCCCCC)CCCCCCCC)CCCNC(=O)OC [Compound 181, Heptadecan-9-yl 8-((3-((methoxycarbonyl)amino)propyl)(8-(nonyloxy)-8-oxooctyl)amino)octanoate] | 78.7 nm | – | – | – | – | – | – | – | – | – | 0.27 | 0.97 | – | – | 88.9% |
| CCCCCCCCCOC(=O)CCCCCCCN(CCCCCCCC(=O)OC(CCCCCCCC)CCCCCCCC)CCCNc1c(NC)c(=O)c1=O [Compound 182, Heptadecan-9-yl 8-((3-((2-(methylamino)-3,4-dioxocyclobut-1-en-1-yl)amino)propyl)(8-(nonyloxy)-8-oxooctyl)amino)octanoate] | 84.4 nm | – | – | – | – | – | – | – | – | – | 0.66 | 6.80 | – | – | 99.0% |
| CCCCCCCCCOC(=O)CCCCCCCN(CCCCCCCC(=O)OC(CCCCCCCC)CCCCCCCC)CCCNC(=O)CO [Compound 198, Heptadecan-9-yl 8-((3-(2-hydroxyacetamido)propyl)(8-(nonyloxy)-8-oxooctyl)amino)octanoate] | 84.2 nm | – | – | – | – | – | – | – | – | – | 0 | 0.52 | – | – | 99.5% |
| CCCCCCCCCOC(=O)CCCCCCCN(CCCCCCCC(=O)OC(CCCCCCCC)CCCCCCCC)CCCN/C(=N/S(C)(=O)=O)N(C)C [Compound 233, Heptadecan-9-yl (Z)-8-((3-(3,3-dimethyl-2-(methylsulfonyl)guanidino)propyl)(8-(nonyloxy)-8-oxooctyl)amino)octanoate] | 66.9 nm | 93.7 nm | 87.0 nm | – | 97.6% | – | – | – | – | – | – | 0.05 | – | – | 97.81% |
| CCCCCCCCCOC(=O)CCCCCCCN(CCCCCCCC(=O)OC(CCCCCCCC)CCCCCCCC)CCCC(=O)NC [Compound 239, Heptadecan-9-yl 8-((4-(methylamino)-4-oxobutyl)(8-(nonyloxy)-8-oxooctyl)amino)octanoate] | 55.8 nm | 71.3 nm | – | – | 82.6% | – | – | – | – | – | – | 0.01 | – | – | 90.42% |
